Patent US9822068B2, “Inhibitors of fatty acid amide hydrolase (FAAH) enzyme with improved oral bioavailability and their use as medicaments” (THE REGENTS OF THE UNIVERSITY OF CALIFORNIA, priority 2014, dated 2017)
Converted amounts (≈) assume the structure as drawn. Read-outs that look alike come from different tables or passages of the source.

Tests used:
[1] = Aqueous kinetic solubility assay; type: physicochemical; settings: phosphate buffered saline, aqueous buffer, kinetic from dmso stock, PBS pH 7.4, target 250 μM, 2.5% DMSO, 25° C.
Description: Aqueous Kinetic Solubility Assay
The aqueous kinetic solubility was determined from a 10 mM DMSO stock solution of test compound in Phosphate Buffered Saline (PBS) at pH 7.4.
The study was performed by incubation of an aliquot of 10 mM DMSO stock solution in PBS (pH 7.4) at a target concentration of 250 μM resulting in a final concentration of 2.5% DMSO. The incubation was carried out under shaking at 25° C. for 24 h followed by centrifugation. The supernatant was analyzed by UPLC/MS for the quantification of dissolved compound by UV at a specific wavelength (215 nm).
The aqueous kinetic solubility (in μM) was calculated by dividing the peak area of the supernatant by the peak area of the test compound reference and further multiplied by the concentration of the test compound reference and dilution factor.
The UPLC/MS analyses were performed on a Waters ACQUITY UPLC/MS system consisting of a SQD (Single Quadrupole Detector) Mass Spectrometer equipped with an Electrospray Ionization interface and a Photodiode Array Detector. The PDA range was 210-400 nm. The analyses were run on an ACQUITY UPLC BEH C18 column (50×2.1 mmID, particle size 1.7 m) with a VanGuard BEH C18 pre-column (5×2.1 mmID, particle size 1.7 μm). The mobile phase was 10 mM NH4OAc in H2O at pH 5 adjusted with AcOH (A) and 10 mM NH4OAc in MeCN—H2O (95:5) at pH 5 (B). Electrospray ionization in positive and negative mode was applied in the mass scan range 100-500 Da.

[2] = Pharmacokinetic experiment in cannulated Sprague-Dawley rats (PO and IV); type: in vivo; settings: plasma, rat; for bioavailability: PO 10 mg/kg vs IV 3 mg/kg, read-out: Oral bioavailability (F %)
Description: Pharmacokinetic Experiment and Analysis
Compounds were administered orally (PO) and intravenously (IV) to cannulated Sprague-Dawley rats at 10 and 3 mg/kg, respectively. Vehicle was: PEG400/Tween 80/Saline solution at 10/10/80 (% in volume), respectively. Three animals per dose were treated. Blood samples at 0, 15, 30, 60, 120, 240, 480 and 1440 min after administration were collected for PO arm. Blood samples at 0, 5, 15, 30, 60, 120 and 240 min after administration were collected for IV arm. Plasma was separated from blood by centrifugation for 15 min at 3500 rpm a 4° C., collected in a Eppendorf tube and frozen (−80° C.). Control animals treated with vehicle only were also included in the experimental protocol.
Preparation of Samples, Standard Curve and QC Samples for UPLC-MS Analysis
Samples were thawed in an ice bath and after a short centrifugation transferred (50 μL) into a 96-deepwell plate and added with 150 μL of acetonitrile spiked with 200 nM Warfarin (the Internal Standard, I.S.). After agitation (3 min) the plate was centrifuged at 3000 g for 10 min at 4° C. 80 μL of supernatant was then transferred in a 96-well plate and added with 80 μL of water. Standard compound was spiked in neat solvent (PBS pH 7.4 added with 10% acetonitrile) to prepare a calibration curve over the 1 nM-10 μM range. Three quality controls (QCs) samples were also prepared spiking the compound in blank rat plasma to final 20, 200 and 2000 nM concentrations. Calibrators and QCs were crashed with acetonitrile spiked with the I.S. as described for the plasma samples. Dosing solutions, previously diluted 2000 fold in the neat solvent were also included in the samples and tested.
Compounds plasma levels were monitored on a Xevo TQ UPLC-MS/MS system (Waters, Milford USA), using the calibration curve and the internal standard (Warfarin). Chromatography was carried out on a Acquity BEH C18 column (2.1×50 mmID, 1.7 m particle size, Waters, Milford USA). Flow rate was 0.5 mL/min. The mobile phase was (A) H2O/0.1% formic acid; (B) MeCN/0.1% formic acid. A linear gradient was applied from 5 to 100% B in 2 min. 3 μL of each sample were loaded on column. MS parameters and multiple reaction monitoring (MRM) transitions were carefully tuned for each compound. Plasma levels data were analyzed using PKSolutions excel application (Summit Research Service, USA) to derive the most important pharmacokinetic parameters.
The oral bioavailability (F %) data, and the Area Under the Curve (AUC) data (ng×min/mL) corresponding to the IV (3 mg/kg) and PO (10 mg/kg) dose of selected compounds described in the Examples are reported in Table 3. Their F % data are in the range from 35 to 87.

Rat FAAH = Rat FAAH (Rattus norvegicus (Rat), UniProt P97612); assay: In vitro rat FAAH radiometric assay; type: biochemical; settings: rat brain homogenate, 10 min pre-incubation at 37° C.; read-out: r-FAAH IC50
Chain of Rat FAAH (P97612 whole entry): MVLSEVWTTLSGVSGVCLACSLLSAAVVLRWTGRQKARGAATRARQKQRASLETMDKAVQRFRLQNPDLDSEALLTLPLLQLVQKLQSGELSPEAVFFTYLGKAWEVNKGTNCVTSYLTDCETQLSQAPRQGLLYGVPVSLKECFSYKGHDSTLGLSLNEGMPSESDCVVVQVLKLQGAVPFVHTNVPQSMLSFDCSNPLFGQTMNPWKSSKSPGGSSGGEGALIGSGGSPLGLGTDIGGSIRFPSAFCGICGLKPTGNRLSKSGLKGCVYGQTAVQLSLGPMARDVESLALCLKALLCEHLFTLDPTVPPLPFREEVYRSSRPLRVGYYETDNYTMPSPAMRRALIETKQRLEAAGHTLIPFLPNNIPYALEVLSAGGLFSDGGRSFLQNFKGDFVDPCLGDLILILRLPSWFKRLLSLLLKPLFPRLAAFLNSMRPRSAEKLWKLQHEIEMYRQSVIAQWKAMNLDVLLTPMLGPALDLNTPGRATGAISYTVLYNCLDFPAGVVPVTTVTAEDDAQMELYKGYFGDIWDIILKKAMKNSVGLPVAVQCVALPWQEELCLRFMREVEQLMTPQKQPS
Description: In Vitro Rat FAAH Radiometric Assay
Rat FAAH was prepared from male Sprague Dawley rat brains, homogenized in a potter in 20 mM of Tris HCl pH 7.4, 0.32 M sucrose.
The radiometric assay used to measure FAAH activity was performed in Eppendorf tubes: 50 μg of total rat brain homogenate were pre-incubated in 445.5 μL of assay buffer (50 mM Tris-HCl pH 7.4, 0.05% Fatty acid-free-bovine serum albumin (BSA)) with 4.5 μL of inhibitor (at appropriate concentration in DMSO) or DMSO alone (to measure FAAH total activity) for 10 min at 37° C. The blank (no activity control) was prepared using 445.5 μL of assay buffer and 4.5 μL of DMSO without the 50 μg of total rat brain homogenate.
After 10 min of pre-incubation with test compounds, the reaction was started by adding of 50 μL of substrate and incubating for 30 min at 37° C. The substrate was prepared in assay buffer in order to achieve the final concentration of 1 μM arachidonoyl ethanolamide (Cayman Chemical N. 90050) and 0.6 nM anandamide [ethanolamine-1-^3H] (American Radiolabeled Chemicals Inc, ART. 0626, Conc. 1 mCi/mL, S.A. 60 Ci/mmol). The reaction was stopped by adding cold 1:1 CHCl3/MeOH. After 10 min of centrifugation (845×g at 4° C.) 600 μL of aqueous phase were transferred into scintillation vials previously filled with 3 mL of scintillation fluid (Ultima Gold™, Perkin Elmer Inc., Cat. 6013329). Radioactivity was measured by liquid scintillation counting (MicroBeta2 LumiJET Perkin Elmer Inc.).
(§1) Concentrations causing half-maximal inhibition of FAAH, IC50 values, were determined by non-linear regression analysis of the Log [concentration]/response curves generated with mean replicate values using a four parameter Hill equation curve fitting with GraphPad Prism 5 (GraphPad Software Inc., CA—USA).

human FAAH-1 = human FAAH-1 (Homo sapiens (Human), UniProt O00519); assay: In vitro human FAAH fluorescent assay; type: biochemical; settings: human FAAH-1 membrane preparation from HEK-293, 50 min pre-incubation at 37° C.; read-out: h-FAAH IC50
Chain of human FAAH-1 (O00519 whole entry): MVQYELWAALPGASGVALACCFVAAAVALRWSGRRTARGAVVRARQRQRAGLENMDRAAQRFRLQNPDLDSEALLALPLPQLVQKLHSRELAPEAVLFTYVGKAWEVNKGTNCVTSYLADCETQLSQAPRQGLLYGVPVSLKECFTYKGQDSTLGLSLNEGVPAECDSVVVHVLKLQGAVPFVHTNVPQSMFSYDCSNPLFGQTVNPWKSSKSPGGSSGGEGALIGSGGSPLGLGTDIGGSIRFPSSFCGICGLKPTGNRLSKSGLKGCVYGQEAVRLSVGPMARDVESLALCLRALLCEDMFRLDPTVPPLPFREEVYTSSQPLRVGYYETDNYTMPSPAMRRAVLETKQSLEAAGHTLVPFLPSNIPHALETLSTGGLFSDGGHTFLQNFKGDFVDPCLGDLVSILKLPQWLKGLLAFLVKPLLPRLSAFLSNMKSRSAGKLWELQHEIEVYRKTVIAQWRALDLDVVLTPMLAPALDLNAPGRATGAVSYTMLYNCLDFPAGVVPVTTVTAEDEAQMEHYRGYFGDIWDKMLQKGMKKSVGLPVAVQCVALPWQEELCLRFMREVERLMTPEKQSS
Description: In Vitro Human FAAH Fluorescent Assay
Human recombinant FAAH was obtained from a HEK-293 cell line stably overexpressing human FAAH-1 enzyme. Cells were grown in Dulbecco's Modified Eagle Medium (DMEM) medium containing 10% FBS, 1% pen/strep, 1% glutamine and 500 μg/mL G418. To obtain membrane preparation cells were scraped off with cold PBS and collected by centrifugation (500×g, 10 min, 4° C.); the cell pellet was re-suspended in 20 mM Tris-HCl pH 7.4, 0.32M sucrose, disrupted by sonication (10 pulses, 5 times) and centrifuged (800×g, 15 min, 4° C.); the collected supernatant was centrifuged at 105,000×g for 1 h at 4° C. and the pellet was re-suspended in PBS.
The fluorescent assay to measure FAAH activity was performed in 96 wells black plates: 2.5 μg of human FAAH-1 membrane preparation were pre-incubated for 50 min at 37° C., in 180 µL of assay buffer (50 mM TrisHCl pH 7.4, 0.05% Fatty acid-free-BSA) with 10 μL of inhibitor (at appropriate concentration in DMSO) or 10 μL DMSO to measure FAAH total activity. The background (no activity) samples were prepared using 180 μL of assay buffer without human FAAH-1 and 10 μL of DMSO. The reaction was then started by the addition of 10 μL of a 40 μM substrate solution (N. 10005098, Cayman Chemical) dissolved in ethanol, and used at a final concentration of 2 μM. The reaction was carried out for 30 min at 37° C. and fluorescence was measured with a Tecan Infinite M200 nanoquant plate reader (excitation wavelength 350 nm/emission wavelength 460 nm).
as §1

[3] = IV, 3 mg/kg, read-out: AUC IV (3 mg/kg) (converted)
[4] = PO, 10 mg/kg, read-out: AUC PO (10 mg/kg) (converted)

Row | Structure (SMILES) | solubility kinetic at 24 h [1] | bioavailability [2] | AUC [2, 3] | AUC [2, 4] | IC50 (Rat FAAH) | IC50 (human FAAH-1)
1 | CNC(=O)c1cccc(-c2cc(OC(=O)NC3CCCCC3)ccc2F)c1 [Example 1, [4-fluoro-3-[3-(methylcarbamoyl)phenyl]phenyl]N-cyclohexylcarbamate] | 28 µM (≈ 10.4 µg/mL) | 87% | 1280 ng·h/mL | 3700 ng·h/mL | 1.4 nM | 12 nM
2 | NS(=O)(=O)c1cccc(-c2cc(OC(=O)NC3CCCCC3)ccc2F)c1 [Example 2, [4-fluoro-3-(3-sulfamoylphenyl)phenyl] N-cyclohexylcarbamate] | 28 µM (≈ 11 µg/mL) | 35% | 746 ng·h/mL | 867 ng·h/mL | 0.7 nM | 11 nM
3 | NC(=O)c1cccc(-c2cc(OC(=O)NC3CCC3)ccc2F)c1 [Example 3, [3-(3-carbamoylphenyl)-4-fluoro-phenyl] N-cyclobutylcarbamate] | 33 µM (≈ 10.8 µg/mL) | 79% | 498 ng·h/mL | 1310 ng·h/mL | 0.9 nM | 1.8 nM
4 | CNC(=O)c1cccc(-c2cc(OC(=O)NC3CCCC3)ccc2F)c1 [Example 4, [4-fluoro-3-[3-(methylcarbamoyl)phenyl]phenyl] N-cyclopentylcarbamate] | 96 µM (≈ 34.2 µg/mL) | – | – | – | 3.9 nM | 2.9 nM
5 | NC(=O)c1cccc(-c2cc(OC(=O)NC3CCCC3)ccc2F)c1 [Example 5, [3-(3-carbamoylphenyl)-4-fluoro-phenyl] N-cyclopentylcarbamate] | – | – | – | – | 2.9 nM | 0.84 nM
6 | CNC(=O)c1cccc(-c2cc(OC(=O)NC3CCC3)ccc2F)c1 [Example 6, [4-fluoro-3-[3-(methylcarbamoyl)phenyl]phenyl] N-cyclobutylcarbamate] | 183 µM (≈ 62.7 µg/mL) | – | – | – | 5.1 nM | 6.6 nM
7 | CS(=O)(=O)c1cccc(-c2cc(OC(=O)NC3CCCCC3)ccc2F)c1 [Example 7, [4-Fluoro-3-(3-methylsulfonylphenyl)phenyl] N-cyclohexylcarbamate] | – | – | – | – | 8.9 nM | 4.9 nM
8 | NS(=O)(=O)c1cccc(-c2cc(OC(=O)NC3CCCCC3)ccc2OC(F)F)c1 [Example 10, [4-(difluoromethoxy)-3-(3-sulfamoylphenyl)phenyl] N-cyclohexylcarbamate] | – | – | – | – | 8.2 nM | 9.2 nM
9 | CS(=O)(=O)c1cccc(-c2cc(OC(=O)NC3CCCCC3)ccc2OC(F)F)c1 [Example 11, [4-(difluoromethoxy)-3-(3-methylsulfonylphenyl)phenyl] N-cyclohexylcarbamate] | 12 µM (≈ 5.27 µg/mL) | – | – | – | 2.9 nM | 6.5 nM
10 | NC(=O)c1cccc(-c2cc(F)cc(OC(=O)NC3CCCCC3)c2)c1 [Example 12, [3-(3-Carbamoylphenyl)-5-fluoro-phenyl] N-cyclohexylcarbamate] | – | – | – | – | 0.23 nM | 0.87 nM
11 | NC(=O)c1cccc(-c2cccc(OC(=O)NC3CCCCC3)c2F)c1 [Example 13, [3-(3-Carbamoylphenyl)-2-Fluoro-Phenyl] N-Cyclohexylcarbamate] | – | – | – | – | 1.9 nM | 0.89 nM
12 | CNC(=O)c1cccc(-c2cccc(OC(=O)NC3CCCCC3)c2)c1 [[drawing 127] comparison compound, reference compound] | 18 µM (≈ 6.34 µg/mL) | 30% | 1520 ng·h/mL | 1500 ng·h/mL | – | –
13 | NS(=O)(=O)c1cccc(-c2cccc(OC(=O)NC3CCCCC3)c2)c1 [[drawing 129] comparison compound, reference compound] | 7 µM (≈ 2.62 µg/mL) | 21% | 725 ng·h/mL | 502 ng·h/mL | – | –
14 | NC(=O)c1cccc(-c2cccc(OC(=O)NC3CCC3)c2)c1 [[drawing 131] comparison compound, reference compound] | 6 µM (≈ 1.86 µg/mL) | 39% | 891 ng·h/mL | 1160 ng·h/mL | – | –
15 | NC(=O)c1cccc(-c2cccc(OC(=O)NC3CCCCC3)c2)c1 [[drawing 135] comparison compound, reference compound] | 1 µM (≈ 0.338 µg/mL) | 5% | 2560 ng·h/mL | 446 ng·h/mL | – | –
